Measurements from patent publication US6683103B2, “Sulfonamides for treatment of endothelin-mediated disorders” (Texas Biotechnology Corporation, priority 1997, dated 2004).

Key:
[1] = Stability of solutions, percent remaining by HPLC; assay type: physicochemical
[2] = Solubility in aqueous media

- percent remaining (HPLC) ([1]; 0.49 mg/mL, 1.5% PVP + 3.0% PG, 24 h): 90.0%
- percent remaining (HPLC) ([1]; 0.51 mg/mL, 5% dextrose, 24 h): 99.4%
- percent remaining (HPLC) ([1]; 0.51 mg/mL, normal saline, 24 h): 96.9%
- percent remaining (HPLC) ([1]; 0.57 mg/mL, 0.75% PVP + 1.5% PG, 24 h): 74.4%
- percent remaining (HPLC) ([1]; 20 mg/mL, 5% dextrose + 5% PG + citrate buffer, 0.3% w/v (pH 7.5), 26 h (4° C.)): 97.2%
- percent remaining (HPLC) ([1]; 20 mg/mL, 5% dextrose + 5% buffer (pH 7.0), 24 h): 92.6%
- percent remaining (HPLC) ([1]; 20 mg/mL, 5% dextrose + K-phosphate buffer, 2.5% w/v (pH 6), 24 h): 84.6%
- percent remaining (HPLC) ([1]; 20 mg/mL, 5% dextrose + K-phosphate buffer, 2.5% w/v (pH 7), 20 h): 92.6%
- percent remaining (HPLC) ([1]; 20 mg/mL, 5% dextrose + K-phosphate buffer, 2.5% w/v (pH 7.5), 24 h): 93.4%
- percent remaining (HPLC) ([1]; 20 mg/mL, 5% dextrose + citrate buffer, 0.3% w/v (pH 7.5), 27 h (4° C.)): 96.6%
- percent remaining (HPLC) ([1]; 20 mg/mL, 5% dextrose + citrate buffer, 0.3% w/v (pH 8), 21 h): 92.9%
- percent remaining (HPLC) ([1]; 20 mg/mL, 5% dextrose, 24 h (13° C.)): 93.7%
- percent remaining (HPLC) ([1]; 20 mg/mL, 5% dextrose, 25 h (10° C.)): 93.7%
- percent remaining (HPLC) ([1]; 20 mg/mL, 10% dextrose + 10% PG + Na-phosphate buffer, 0.3% w/v (pH 7.5), 24 h): 90.7%
- percent remaining (HPLC) ([1]; 20 mg/mL, 10% dextrose, 24 h): 93.4%
- percent remaining (HPLC) ([1]; 30 mg/mL, 5% dextrose, 24 h): 92.2%
- percent remaining (HPLC) ([1]; 30 mg/mL, 10% dextrose + 10% PG + citrate buffer, 0.3% w/v (pH 7.5), 24 h (4° C.)): 98.0%
- percent remaining (HPLC) ([1]; 30 mg/mL, 20% sorbitol, 24 h): 93.2%
- percent remaining (HPLC) ([1]; 100 mg/mL, 5% dextrose, 6 h): 93.0%
- percent remaining (HPLC) ([1]; 100 mg/mL, 10% dextrose +10% PG + citrate buffer, 0.3% w/v (pH 7.5), 24 h): 94.2%
- percent remaining (HPLC) ([1]; 100 mg/mL, 30% sorbitol, 24 h): 93.2%
- percent remaining (HPLC) ([1]; mg/mL not given, 10% dextrose + 10% PG + Na-phosphate buffer, 0.3% w/v (pH 7.5), 24 h (4° C.)): 97.4%
- percent remaining (HPLC) ([1]; mg/mL not given, 10% dextrose + 10% PG + Na-phosphate buffer, 0.3% w/v (pH 8), 24 h (4° C.)): 96.4%
- percent remaining (HPLC) ([1]; mg/mL not given, 10% dextrose + 10% PG + citrate buffer, 0.3% w/v (pH 7.4), 24 h (4° C.)): 97.6%
- percent remaining (HPLC) ([1]; mg/mL not given, 10% dextrose + 10% PG, 24 h (4° C.)): 97.6%
SMILES: Cc1cc2c(cc1CC(=O)c1sccc1S(=O)(=O)Nc1onc(C)c1Cl)OCO2.[Na] [sodium]
- stability compared to the sodium hydrogen phosphate salt ([1]; certain aqueous formulations): as stable as the sodium hydrogen phosphate salt
- solubility compared to the neutral compound [2]: improved solubility over the neutral compound
